Series [1] concerns Botryotinia fuckeliana (Botrytis cinerea). Put plainly: Botryotinia fuckeliana (Botrytis cinerea) / liquid culture (gray mould). It is filed as cell-based. As to conditions: 20 ppm; compared to untreated control; inhibition of growth determined photometrically 3-4 days after application, 24° C. The protocol: Botryotinia fuckeliana (Botrytis cinerea)/Liquid Culture (Gray Mould)
Conidia of the fungus from cryogenic storage are directly mixed into nutrient broth (Vogels broth). After placing a (DMSO) solution of test compound into a microtiter plate (96-well format), the nutrient broth containing the fungal spores is added. The test plates are incubated at 24° C. and the inhibition of growth is determined photometrically 3-4 days after application.

In series [2] the test system is Glomerella lagenarium (Colletotrichum lagenarium). Put plainly: Glomerella lagenarium (Colletotrichum lagenarium) / liquid culture (anthracnose). It is filed as cell-based. As to conditions: 20 ppm; compared to untreated control; inhibition of growth measured photometrically 3-4 days after application, 24° C. The method, then:
Glomerella Lagenarium (Colletotrichum lagenarium)/Liquid Culture (Anthracnose)
Conidia of the fungus from cryogenic storage are directly mixed into nutrient broth (PDB potato dextrose broth). After placing a (DMSO) solution of test compound into a microtiter plate (96-well format), the nutrient broth containing the fungal spores is added. The test plates are incubated at 24° C. and the inhibition of growth is measured photometrically 3-4 days after application.

For series [3], the system named is Fusarium culmorum. The class given is cell-based. As to conditions: 20 ppm; compared to untreated control; inhibition of growth determined photometrically 3-4 days after application, 24° C.
The subject of series [4] is Gaeumannomyces graminis. Put plainly: Gaeumannomyces graminis / liquid culture (take-all of cereals). It is filed as cell-based. As to conditions: 20 ppm; compared to untreated control; inhibition of growth determined photometrically 4-5 days after application, 24° C. The protocol:
Gaeumannomyces graminis/Liquid Culture (Take-all of Cereals)
Mycelial fragments of the fungus from cryogenic storage were directly mixed into nutrient broth (PDB potato dextrose broth). After placing a (DMSO) solution of test compound into a microtiter plate (96-well format), the nutrient broth containing the fungal spores iss added. The test plates are incubated at 24° C. and the inhibition of growth is determined photometrically 4-5 days after application.

Series [5] has as its system Monographella nivalis (Microdochium nivale). Nature of the series: Monographella nivalis (Microdochium nivale) / liquid culture (foot rot cereals). It is filed as cell-based. As to conditions: 20 ppm; compared to untreated control; inhibition of growth determined photometrically 4-5 days after application, 24° C. The protocol:
Monographella nivalis (Microdochium nivale)/Liquid Culture (Foot Rot Cereals)
Conidia of the fungus from cryogenic storage are directly mixed into nutrient broth (PDB potato dextrose broth). After placing a (DMSO) solution of test compound into a microtiter plate (96-well format), the nutrient broth containing the fungal spores is added. The test plates are incubated at 24° C. and the inhibition of growth is determined photometrically 4-5 days after application.

For series [6], the system named is Magnaporthe grisea (Pyricularia oryzae). It is filed as cell-based. As to conditions: 20 ppm; compared to untreated control; inhibition of growth determined photometrically 3-4 days after application, 24° C.

As a reminder, the melting point is the temperature of the solid-liquid transition.

`CC(C)CC(C)(Cc1ccc(Cl)s1)C(=O)Nc1cnc2c(F)cccc2c1` (stereo not shown) [Compound E1, 2-[(5-chloro-2-thienyl)methyl]-N-(8-fluoro-3-quinolyl)-2,4-dimethyl-pentanamide]: the melting point is 142 to 145 °C. For the same molecule, the “control of Botryotinia fuckeliana” value in series [1] is on record as “at least 80%”. In series [2], the “control of Glomerella lagenarium” value is reported as “at least 80%”. Also, the “control of Fusarium culmorum” value in series [3] is reported as “at least 80%”. Further, in series [4], the “control of Gaeumannomyces graminis” value was “at least 80%”. Also, in series [5], the “control of Monographella nivalis” value is “at least 80%”. In addition, the “control of Magnaporthe grisea” value in series [6] is on record as “at least 80%”.

The record behind these values is patent US11584740B2 (priority 2017, dated 2023).
